Our source for the Activity and IC50 values is ChEMBL document CHEMBL1159101, “Structural diversity of nucleoside phosphonic acids as a key factor in the discovery of potent inhibitors of rat T-cell lymphoma thymidine phosphorylase” (Bioorg Med Chem Lett, 2010).

Test [1] has as its target T1, Thymidine phosphorylase (Rattus norvegicus) (UniProt Q5FVR2).
T1 sequence (whole entry): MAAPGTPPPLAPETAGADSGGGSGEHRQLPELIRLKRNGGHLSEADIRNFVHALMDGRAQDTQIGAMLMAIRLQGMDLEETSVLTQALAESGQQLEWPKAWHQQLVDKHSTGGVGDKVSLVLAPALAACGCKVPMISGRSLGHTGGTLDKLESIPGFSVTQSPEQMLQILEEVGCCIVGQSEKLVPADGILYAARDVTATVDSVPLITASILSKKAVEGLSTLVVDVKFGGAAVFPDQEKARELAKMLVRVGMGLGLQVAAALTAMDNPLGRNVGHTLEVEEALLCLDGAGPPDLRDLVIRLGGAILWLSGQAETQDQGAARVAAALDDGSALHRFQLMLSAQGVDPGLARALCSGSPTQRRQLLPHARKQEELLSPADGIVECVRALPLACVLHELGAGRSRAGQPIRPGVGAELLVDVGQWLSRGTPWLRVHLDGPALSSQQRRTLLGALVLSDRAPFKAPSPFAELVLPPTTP
In words: Inhibition of thymidine phosphorylase in T cell lymphomas of Sprague-Dawley rat assessed as residual activity at 10 uM in presence of 100 uM thymidine and 200 uM phosphate.

For a further test, the target named is T2, Thymidine phosphorylase (Rattus norvegicus, UniProt Q5FVR2).
T2 sequence (Q5FVR2 whole entry): T1 sequence (whole entry)
The experiment in a line: Inhibition of thymidine phosphorylase in T cell lymphomas of Sprague-Dawley rat in presence of 100 uM thymidine and 200 uM phosphate. In kind it is cell-based.

In the case of `O=c1ccn([C@H]2C[C@@H](CO)N(CP(=O)(O)O)C2)c(=O)[nH]1`, the Activity in test [1] was found to be 17%.
Take `Cc1cn(C2CCN(C(=O)P(=O)(O)O)C2)c(=O)[nH]c1=O` (racemic): the IC50 on Thymidine phosphorylase was 350 nM. Moreover, the Activity in test [1] stood at 3%.
For the compound `Cc1cn([C@H]2C[C@H]3O[C@](CBr)(P(=O)(O)O)OC[C@H]3O2)c(=O)[nH]c1=O`, the Activity in test [1] stood at 20%.
On to `Cc1cn(C2CCN(C(=S)P(=O)(O)O)C2)c(=O)[nH]c1=O` (racemic), for which the half-maximal inhibitory concentration (IC50) on Thymidine phosphorylase was 190 nM. In test [1], the Activity came out at 9%.
Taken in the same sequence, the figures for `Cc1cn([C@@H]2CN(CP(=O)(O)O)C[C@@H]2O)c(=O)[nH]c1=O` were 45 nM and 1%.
For `Cc1cn([C@@H]2CN(C(=O)P(=O)(O)O)C[C@H]2O)c(=O)[nH]c1=O`, in that order: 220 nM and 4%.
Regarding `Cc1cn([C@H]2C[C@H]3O[C@@](CBr)(P(=O)(O)O)OC[C@H]3O2)c(=O)[nH]c1=O`, the Activity in test [1] was determined as 26%.
As for `Cc1cn([C@H]2C[C@H](CO)N(CP(=O)(O)O)C2)c(=O)[nH]c1=O`, at Thymidine phosphorylase, the IC50 is 250 nM. Moreover, in test [1], the Activity stood at 0%.
With `Cc1cn(C2CCN(CP(=O)(O)O)C2)c(=O)[nH]c1=O` (racemic), in test [1], the Activity stood at 29%.
The same measure, in the same setting: as for `Cc1cn(CCOC(c2ccccc2)P(=O)(O)O)c(=O)[nH]c1=O` (stereo not given), the figure is 9%.
`Cc1cn([C@@H]2CN(C(=O)P(=O)(O)O)C[C@@H]2O)c(=O)[nH]c1=O`: the IC50 at Thymidine phosphorylase is 11 nM. In test [1], the Activity came to 0%.
Consider `Cc1cn(CCOC2(P(=O)(O)O)CCCCC2)c(=O)[nH]c1=O`, for which, in test [1], the Activity worked out at 21%.
Still for that read-out and setting: as for `Cc1cn([C@H]2C[C@H]3O[C@](c4ccccc4)(P(=O)(O)O)OC[C@H]3O2)c(=O)[nH]c1=O`, the figure is 4%.
On to `Cc1cn([C@H]2C[C@H](CO)N(C(=O)P(=O)(O)O)C2)c(=O)[nH]c1=O`, for which the 50% inhibitory concentration (IC50) at Thymidine phosphorylase amounted to 45 nM. In test [1], the Activity turned out to be 2%.
For `Cc1cn(C2CCN(C(=O)CP(=O)(O)O)C2)c(=O)[nH]c1=O` (racemic), in test [1], the Activity is 59%.
Same read-out and setting: as for `Cc1cn([C@H]2C[C@H]3O[C@@](c4ccccc4)(P(=O)(O)O)OC[C@H]3O2)c(=O)[nH]c1=O`, the figure is 47%.
`Cc1cn([C@@H]2CN(C(=S)P(=O)(O)O)C[C@@H]2O)c(=O)[nH]c1=O`: the IC50 at Thymidine phosphorylase turned out to be 15 nM. For the same compound, the Activity in test [1] was 0%.
As to `Cc1cn(CC(OCP(=O)(O)O)Oc2ccccc2)c(=O)[nH]c1=O` (stereo not given), the half-maximal inhibitory concentration (IC50) on Thymidine phosphorylase was found to be 750 nM. Further, in test [1], the Activity is 1%.
Turning to `Cc1cn(CCOC2(P(=O)(O)O)CCCC2)c(=O)[nH]c1=O`, the Activity in test [1] stood at 14%.
`C=CCOC(Cn1cc(C)c(=O)[nH]c1=O)OCP(=O)(O)O` (stereo not given): the concentration for half-maximal inhibition (IC50) on Thymidine phosphorylase was found to be 300 nM. Also, the Activity in test [1] came to 10%.
